Holding throughout (type): cell-based
Experiment [1] concerns human T cells. Put plainly: [3H]adenosine uptake in activated human T cells. The following applies: Homo sapiens, T-cell; T cells activated 2 days in presence of compound, washed, [3H]adenosine uptake; read-out: IC50, inhibition of uptake of adenosine into human T cells. From the text:
Applicant observed that activated human T cells took up [3H]adenosine, and this uptake was reduced in the presence of the selective ENT1 inhibitor dilazep, confirming that ENT1 is the dominant transporter involved in adenosine uptake in T cells.
Human T cells were activated for 2 days in the presence of Compound 1 or dilazep. The cells were then washed and used in a [^3H]adenosine uptake experiment. […] (See FIG. 27A.)

Experiment [2] deals with human T cells. Description: T cell proliferation by CFSE dilution in the presence of ATP. The following applies: Homo sapiens, read-out: IC50, restoration of T cell proliferation. On the procedure: Human T cells were activated in the presence of 100 μM ATP and dilazep or Compound 1 and proliferation was monitored by CarboxyFluoroscein Succinimidyl Ester (CFSE) dilution. […] (See FIG. 27B.)

The target in a further experiment is T1, ENT1 (Homo sapiens, UniProt Q99808).
T1 sequence (Q99808 1-456): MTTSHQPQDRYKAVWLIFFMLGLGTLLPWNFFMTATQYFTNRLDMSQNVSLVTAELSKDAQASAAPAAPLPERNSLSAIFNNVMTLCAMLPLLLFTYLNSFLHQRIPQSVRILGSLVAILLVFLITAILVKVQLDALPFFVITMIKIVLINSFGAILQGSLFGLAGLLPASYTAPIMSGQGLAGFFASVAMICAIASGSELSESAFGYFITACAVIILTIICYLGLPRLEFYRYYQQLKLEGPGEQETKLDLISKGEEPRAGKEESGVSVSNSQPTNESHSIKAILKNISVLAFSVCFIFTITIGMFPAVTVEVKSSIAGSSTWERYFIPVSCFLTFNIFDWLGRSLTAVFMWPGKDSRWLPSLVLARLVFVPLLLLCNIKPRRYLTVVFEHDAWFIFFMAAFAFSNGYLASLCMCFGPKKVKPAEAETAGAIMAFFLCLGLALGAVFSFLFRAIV
Put plainly: ENT1 transport inhibition assay (uridine transport).

In experiment [3] the test system is tumor infiltrating T cells. Put plainly: T cell proliferation in dissociated human tumor cell suspension cultures with ATP. The following applies: 500 μM ATP; CD3/CD28 microbeads and IL-2; Compound 1 300 nM; anti-PD-1 10 μg/mL; 3 days. Here is the method:
Human tumors were dissociated, and cells were CFSE-labelled and stimulated with CD3/CD28 microbeads and IL-2 in the presence of 500 μM of ATP as a source of adenosine.
Human tumor pieces were rinsed with cold PBS and cut into 1 to 2 mm fragments with a scalpel blade and transferred into GentleMACS C tubes. Dissociation of the tissue was completed with the Tumor Dissociation kit (Miltenyi Biotec) according to the manufacturer's instruction. Briefly, 5 mL of dissociation solution—containing 200 μL of enzyme H, 20 μL of enzyme R and 25 μL of enzyme A and RPMI until 5 mL—was added per gram of tumor. The tube was placed in the gentleMACS dissociator and the 1st program was run. An incubation step of 30 minutes at 37° C. was applied with rotation (MACSmix tube rotator). After this incubation, a quick centrifugation (30×rcf, 1 min) was performed, the supernatant containing dissociated cells was collected in a new tube containing FBS (30% of the total volume with supernatant) and placed at 4° C. […] A short centrifugation was performed, the cells in supernatant were pooled with the 1st collection and filtered through a 100 μm cell strainer which was washed with 10 mL RPMI 10% FBS 2% P/S. After centrifugation at 350×rcf for 10 min, cells were resuspended in 20 mL RPMI 10% FBS 2% P/S and counted with a haemocytometer. […]

Experiment [4] relates to human T cells. Put plainly: CMV pp65 peptide-specific T cell expansion and antigen-specific killing with ATP. The following applies: 300 μM ATP as a source of adenosine. On the procedure:
FIGS. 29A and 29B show the results of an experiment whereby human T cells were activated in the presence of 300 μM ATP and Compound 1, anti-PD-1, or Compound 1 and anti-PD-1.
Human T cells were activated in the presence of 300 μM ATP and Compound 1, anti-PD-1, or Compound 1 and anti-PD-1. CD8+ T cell population was monitored by tetramer-positive (Tet+) staining data. […] (See FIGS. 29A-29B).

“Also recorded” adds a separate entry of the source.

Take `COc1cc(C(=O)O[C@@H]2CCCOc3cc(cc(OC)c3OC)C(=O)NCCCN3CCCN(CC2)CC3)cc(OC)c1OC` [Compound 1, (12R)-7^4,7^5-dimethoxy-6-oxo-8-oxa-5-aza-1(1,4)-diazepana-7(1,3)-benzenacyclotetradecaphane-12-yl 3,4,5-trimethoxybenzoate]: the IC50 in the experiment with human T cells [1] worked out at 200 pM; in the experiment on human T cells [2], 60 pM; at ENT1 (read-out: IC50, ENT1 inhibition (ENT1-mediated uridine transport)) it was 2200 pM. At ENT1, the “Potency of inhibition of ENT1-mediated uridine transport (in words)” value is reported as “nanomolar potency”. The “Rescue of T cell proliferation suppressed by ATP” value in experiment [3] is recorded as “restored; also recorded: partially reversed”. Moreover, the Antigen-specific killing activity entry in the experiment with human T cells [4] was “restoration”. In addition, in the experiment with human T cells [4] (tetramer-positive CD8+ T cells), the “CMV pp65 peptide-specific T cell expansion” value is reported as “restores”.

Values taken from patent US20260284074A1, “ENT1 Inhibitors in Combination with Checkpoint Inhibitors” (iTeos Belgium SA, priority 2023, published 2026).
